The results in this text go back to patent publication US6528655B1, “Aromatic derivatives with HIV integrase inhibitory properties” (Pharmacor, Inc., priority 2000, dated 2003).

SMILES strings stand for the structures. pIC50: −log10 of the molar value. Where two headings read alike, the source gives them in different places.

As a reminder, the pIC50 is the negative decadic logarithm of the IC50, by convention in mol/L.

The assay deals with HIV-1 integrase (Human immunodeficiency virus type 1 group M subtype B, UniProt P04585). Put plainly: HIV-1 integrase inhibition assay (radiolabeled duplex substrate corresponding to the U5 end of the HIV LTR). The class given is biochemical. The method, then: For the purpose of Table 1 to 4, the HIV-1 integrase inhibition assay was carried out following a known procedure (Burke, Jr. T. R. et al., J. Med. Chem. 38, 4171-4178 (1995)). A suitable radiolabeled duplex substrate corresponding to the U5 end of the HIV LTR was used.
For the purposes of Table 1 to 4 the HIV-1 integrase inhibition assay was based on a known procedure (Hazuda, D. J. et al., Nucleic Acids Res. 22 1121-1122 (1994)).

In turn, `O=C(C=Cc1ccc([N+](=O)[O-])cc1)NC(Cc1cn(C(c2ccccc2)(c2ccccc2)c2ccccc2)cn1)C(=O)NCCc1ccc(O)c(O)c1` [Example 41, N-(Nα-(4-Nitrocinnamoyl)-Nτ-trityl-L-histidinyl)dopamine] showed a pIC50 of 5.94. `CC(C)(C)OC[C@H](NC(=O)/C=C/c1ccc(O)c(O)c1)C(=O)NCCc1ccc(O)c(O)c1` [Example 42, N-(Nα-Caffeoyl-O-tert-butyl-L-seryl)dopamine] had a pIC50 of 6.35. Compound `CC(C)(C)OC[C@H](NC(=O)c1cc(O)c(O)c(O)c1)C(=O)NCCc1ccc(O)c(O)c1` [Example 43, N-[Nα-(3,4,5-Trihydroxybenzoyl)-O-tert-butyl-L-seryl]dopamine] had a pIC50 of 6.82. Same read-out and setting: in the case of `COc1ccc(OC)c(C=CC(=O)N[C@@H](COC(C)(C)C)C(=O)NCCc2ccc(O)c(O)c2)c1` [Example 44, N-[Nα-(2,5-Dimethoxycinnamoyl)-O-tert-butyl-L-seryl]dopamine] it was less than 5.00; in that of `O=C(N[C@@H](CO)C(=O)NCCc1ccc(O)c(O)c1)c1cc(O)c(O)c(O)c1` [Example 45, N-[Nα-(3,4,5-Trihydroxybenzoyl)-L-seryl]dopamine], 6.35; in that of `COc1ccc(OC)c(C=CC(=O)N[C@@H](CO)C(=O)NCCc2ccc(O)c(O)c2)c1` [Example 46, N-[Nα-(2,5-Dimethoxycinnamoyl)-L-seryl]dopamine], less than 5.00.

`Cc1ccc(C(NC(=O)CC[C@H](NC(=O)/C=C/c2ccc(O)c(O)c2)C(=O)NCCc2ccc(O)c(O)c2)(c2ccccc2)c2ccccc2)cc1` [Example 48, N-(Nα-Caffeoyl-Nδ-methyltrityl-L-glutaminyl)dopamine] had a pIC50 of 5.94.

`Cc1ccc(C(NC(=O)CC[C@H](NC(=O)c2ccc(O)c(O)c2)C(=O)NCCc2ccc(O)c(O)c2)(c2ccccc2)c2ccccc2)cc1` [Example 49, N-[Nα-(3,4-Dihydroxybenzoyl)-Nδ-methyltrityl-L-glutaminyl]dopamine] showed a pIC50 of 5.89. Same read-out and setting: in the case of `Cc1ccc(C(NC(=O)CC[C@H](NC(=O)/C=C/c2cccc([N+](=O)[O-])c2)C(=O)NCCc2ccc(O)c(O)c2)(c2ccccc2)c2ccccc2)cc1` [Example 50, N-[Nα-(3-Nitrocinnamoyl)-Nδ-methyltrityl-L-glutaminyl]dopamine] it was 5.40. The same measure, in the same setting: to `O=C(N[C@@H](Cc1cn(C(c2ccccc2)(c2ccccc2)c2ccccc2)cn1)C(=O)NCCc1ccc(O)c(O)c1)c1ccc(O)cc1` [Example 52, N-[Nα-(4-Hydroxybenzoyl)-Nτ-trityl-L-histidinyl]dopamine] belongs 5.48; to `CC(C)(C)OC(=O)NCCC[C@H](NC(=O)c1cc(O)c(O)c(O)c1)C(=O)NCCc1ccc(O)c(O)c1` [Example 54, N-[Nα-(3,4,5-Trihydrozybenzoyl)-Nδ-butoxycarbonyl-L-ornithyl]dopamine], 6.43. Regarding `O=C(NCCCC[C@H](NC(=O)c1cc2cccc(O)c2cc1O)C(=O)OCc1ccccc1)c1cc2cccc(O)c2cc1O` [Example 55, Nα,Nε-di-(3,5-Dihydroxynaphthyl-2-carbonyl)-L-L-lye Benzyl Ester], the pIC50 (Table 2, compounds of formula III′, read-out: IC50) was less than 5.30. In turn, `O=C(NCCCC[C@H](NC(=O)c1cc2cccc(O)c2cc1O)C(=O)NO)c1cc2cccc(O)c2cc1O` [Example 56, Nα,Nε-di-(3,5-Dihydroxynaphthyl-2-carbonyl)-L-lysine hydroxylamide] gave a pIC50 of 5.28. Still for that read-out and setting: to `O=C(N[C@@H](Cc1ccc(O)cc1)C(=O)NCCc1ccc(O)c(O)c1)c1cc2cccc(O)c2cc1O` [Example 57, N-[Nα-(3,5-Dihydroxynaphthyl-2-carbonyl)-L-tyrosyl]dopamine] belongs 5.96; to `O=C(N[C@@H](Cc1ccc(O)cc1)C(=O)NCCc1ccc(O)c(O)c1)c1cc(O)c2cccc(O)c2n1` [Example 58, N-[Nα-(4,8-Dihydroxyquinoline-2-carbonyl)-L-tyrosyl]dopamine], 5.92.
